# Measured values from patent US20250263395A1, “COMPOUNDS THAT MEDIATE PROTEIN DEGRADATION AND METHODS OF USE THEREOF” (Monte Rosa Therapeutics AG, priority 2022, published 2025).
# Assays:
# CDK2 = CDK2 (Homo sapiens (Human), UniProt P24941); test: CDK2 NanoBiT assay (HiBiT-tagged CDK2 degradation); format: cell-based; settings: HEK293, HEK293 clonal line, C-terminal HiBiT tag on CDK2, LgBiT; 24 hours
# Procedure, shortened: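 HEK293 line with CRISPR knock-in C-terminal HiBiT-tagged CDK2 and stable LgBiT, preincubated 16 h with live-cell substrate, then compound-treated 24 h at 37° C, 5% CO2 (30 μM stock). Luminescence normalized to plate negative and positive controls; EC50 from 3-parameter logistic fit, Hill slope 1.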
# CRBN-DDB1 = CRBN-DDB1 (Homo sapiens (Human), UniProt Q96SW2); test: CRBN HTRF assay (Cy5-Thalidomide probe displacement); format: binding; settings: CRBN-DDB1 2.5 nM, Cy5-Thalidomide 100 nM, 30 min; Ki from geometric mean IC50 by Cheng-Prusoff
# CRBN-DDB1, sequence (Q96SW2 whole entry): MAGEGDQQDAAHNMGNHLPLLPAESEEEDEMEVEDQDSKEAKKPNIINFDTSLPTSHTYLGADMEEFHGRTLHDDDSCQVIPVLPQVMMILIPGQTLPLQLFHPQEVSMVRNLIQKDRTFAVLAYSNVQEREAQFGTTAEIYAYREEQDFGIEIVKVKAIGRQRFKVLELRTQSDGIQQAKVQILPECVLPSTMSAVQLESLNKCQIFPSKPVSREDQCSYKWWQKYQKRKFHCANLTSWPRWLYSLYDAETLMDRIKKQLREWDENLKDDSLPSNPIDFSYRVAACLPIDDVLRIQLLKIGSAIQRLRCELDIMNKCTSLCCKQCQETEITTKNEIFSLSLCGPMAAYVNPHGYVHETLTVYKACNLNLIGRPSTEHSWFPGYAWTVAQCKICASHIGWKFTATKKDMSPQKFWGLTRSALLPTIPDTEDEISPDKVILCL
# CRBN-DDB1, sequence (Q16531 whole entry partner): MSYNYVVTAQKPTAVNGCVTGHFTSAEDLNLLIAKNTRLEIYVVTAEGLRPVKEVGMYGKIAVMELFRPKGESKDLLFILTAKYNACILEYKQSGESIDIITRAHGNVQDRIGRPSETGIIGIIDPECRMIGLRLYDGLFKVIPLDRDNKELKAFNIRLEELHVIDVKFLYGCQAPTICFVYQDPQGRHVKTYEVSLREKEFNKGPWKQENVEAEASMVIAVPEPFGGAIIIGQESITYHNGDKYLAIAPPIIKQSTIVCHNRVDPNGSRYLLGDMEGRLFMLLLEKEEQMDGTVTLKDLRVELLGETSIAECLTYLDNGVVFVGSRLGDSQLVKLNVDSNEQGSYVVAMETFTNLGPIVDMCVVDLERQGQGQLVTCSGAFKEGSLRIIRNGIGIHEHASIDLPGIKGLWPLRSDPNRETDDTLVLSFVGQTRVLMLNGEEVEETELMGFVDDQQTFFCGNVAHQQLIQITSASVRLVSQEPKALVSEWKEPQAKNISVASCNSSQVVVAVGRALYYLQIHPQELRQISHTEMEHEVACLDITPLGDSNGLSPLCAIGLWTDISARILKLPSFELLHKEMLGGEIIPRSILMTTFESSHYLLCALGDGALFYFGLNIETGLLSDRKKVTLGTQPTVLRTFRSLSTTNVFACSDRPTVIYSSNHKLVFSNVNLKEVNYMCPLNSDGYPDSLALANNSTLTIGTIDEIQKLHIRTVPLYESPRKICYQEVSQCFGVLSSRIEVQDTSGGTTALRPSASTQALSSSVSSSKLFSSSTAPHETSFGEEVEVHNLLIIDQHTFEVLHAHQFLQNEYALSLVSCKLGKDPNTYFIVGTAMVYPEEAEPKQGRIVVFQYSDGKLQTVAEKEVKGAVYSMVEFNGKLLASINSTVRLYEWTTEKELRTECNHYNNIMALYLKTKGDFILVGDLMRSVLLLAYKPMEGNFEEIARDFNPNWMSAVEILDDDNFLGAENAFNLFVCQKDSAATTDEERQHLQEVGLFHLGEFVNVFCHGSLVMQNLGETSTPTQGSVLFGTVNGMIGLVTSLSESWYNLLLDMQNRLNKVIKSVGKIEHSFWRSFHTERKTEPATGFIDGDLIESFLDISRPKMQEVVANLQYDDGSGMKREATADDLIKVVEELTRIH
# Procedure, shortened: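 HTRF displacement of Cy5-thalidomide probe (100 nM) from His-CRBN-DDB1 (2.5 nM) with anti-His terbium cryptate, in HEPES/NaCl/TCEP/EDTA/Tween20 buffer. 10-point 1:3 compound series, 30 min at ambient temperature; signal normalised to DMSO and lenalidomide controls, IC50 fitted and Ki derived by Cheng-Prusoff.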
SMILES,Dmax (CDK2),Ki (CRBN-DDB1)
"COC12CC(c3nnc(N[C@H]4CN(c5cc(F)c(C6CCC(=O)NC6=O)c(F)c5)[C@@H]4C)o3)(C1)C2 (stereo partly drawn) [Compound 139, 3-(2,6-difluoro-4-((2R,3S)-3-((5-(3-methoxybicyclo[1.1.1]pentan-1-yl)-1,3,4-oxadiazol-2-yl)amino)-2-methylazetidin-1-yl)phenyl)piperidine-2,6-dione]",50 to 80%,100 to 1000 nM
"C[C@@H]1[C@@H](Nc2nnc(C34CC(C(F)(F)F)(C3)C4)o2)CN1c1cc(F)c(C2CCC(=O)NC2=O)c(F)c1 (stereo partly drawn) [Compound 140, 3-(2,6-difluoro-4-((2R,3S)-2-methyl-3-((5-(3-(trifluoromethyl)bicyclo[1.1.1]pentan-1-yl)-1,3,4-oxadiazol-2-yl)amino)azetidin-1-yl)phenyl)piperidine-2,6-dione]",50 to 80%,100 to 1000 nM
"C[C@@H]1[C@@H](Nc2nnc(-c3ccc(C(F)(F)F)cc3)o2)CN1c1cc(F)c(C2CCC(=O)NC2=O)c(F)c1 (stereo partly drawn) [Compound 141, 3-(2,6-difluoro-4-((2R,3S)-2-methyl-3-((5-(4-(trifluoromethyl)phenyl)-1,3,4-oxadiazol-2-yl)amino)azetidin-1-yl)phenyl)piperidine-2,6-dione]",50 to 80%,100 to 1000 nM
"C[C@@H]1[C@@H](Nc2nnc(C3CC4(CCC4)C3)o2)CN1c1cc(F)c(C2CCC(=O)NC2=O)c(F)c1 (stereo partly drawn) [Compound 142, 3-(2,6-difluoro-4-((2R,3S)-2-methyl-3-((5-(spiro[3.3]heptan-2-yl)-1,3,4-oxadiazol-2-yl)amino)azetidin-1-yl)phenyl)piperidine-2,6-dione]",50 to 80%,≤ 100 nM
"Cc1ccc(-c2nnc(N[C@H]3CN(c4cc(F)c(C5CCC(=O)NC5=O)c(F)c4)[C@@H]3C)o2)cc1 (stereo partly drawn) [Compound 143, 3-(2,6-difluoro-4-((2R,3S)-2-methyl-3-((5-(p-tolyl)-1,3,4-oxadiazol-2-yl)amino)azetidin-1-yl)phenyl)piperidine-2,6-dione]",50 to 80%,100 to 1000 nM
"C[C@@H]1[C@@H](Nc2nnc(-c3ccc(OC(F)(F)F)cc3)o2)CN1c1cc(F)c(C2CCC(=O)NC2=O)c(F)c1 (stereo partly drawn) [Compound 144, 3-(2,6-difluoro-4-((2R,3S)-2-methyl-3-((5-(4-(trifluoromethoxy)phenyl)-1,3,4-oxadiazol-2-yl)amino)azetidin-1-yl)phenyl)piperidine-2,6-dione]",50 to 80%,≤ 100 nM
